Measured values: patent publication US4088653A, “Tetrahydropyridyl derivatives” (Canadian Patents and Developments Limited, priority 1976, dated 1978)
Where two headings read alike, the source gives them in different places.

Legend:
phenylquinone-writhing = test: Analgesic activity, phenylquinone-writhing test; format: in vivo, Swiss albino mice; conditions: for ED50: Mus musculus, sc, read-out: Ed50 (analgesic activity); for Analgesic activity (in words): mouse, in vivo
Description: (§1) Initially the activity of the compound tested on an animal was determined at a single dose. If the substance was active at this dose, it was subjected to limited repeat testing. If the presence of activity was confirmed by repetition of the testing, a dose response relation was constructed and the effective dose (ED50) determined. If toxicity was encountered with the initial dose, the dose was reduced until one was reached which was tolerated by the animals tested.
The active ingredients were suspended in a solution of physiological saline and "Tween 80" (TM) surfactant. A dose amounting to 10 milliliters of physiological saline solution and active ingredient per kilogram of bodyweight was administered to the mice according to the dosage as set out in Table 2.

carageenan inflamed paw = test: Anti-inflammatory activity, carageenan-inflamed hind paw volume; format: in vivo, Sprague-Dawley rats; conditions: for Response % animals protected, 3 hours after drug / Response % animals protected, 5 hours after drug: subcutaneous, Sprague-Dawley rats; for Anti-inflammatory activity (in words): rat, in vivo
Description: as §1
Substances were administered subcutaneously to Sprague-Dawley rats, weighing 100-120 g. A suspension of 0.03% carageenan was injected under the plantar skin of a hind paw. The increase in volume of the inflamed paw was measured 3 and 5 hours after drug administration.

blood-glucose = test: Determination of blood-glucose (hyperglycemic activity); format: in vivo, Wistar rats; conditions: for Hyperglycemic activity (in words): rat, in vivo; for % change in blood-glucose concentrations: oral, fasted Wistar rats, 4 hours post-treatment
Description: as §1
Substances were suspended in distilled water and were administered orally to over-night fasted Wistar rats. […] (Escalab ® G:15) (Barthelmai and Czok, Klinische Wochenschrift 40: 585 (1962)).

[1] = 32 mg/kg, subcutaneous, Swiss albino mice
[2] = 64 mg/kg, subcutaneous, Swiss albino mice
[3] = 128 mg/kg, subcutaneous, Swiss albino mice
[4] = 256 mg/kg, subcutaneous, Swiss albino mice
[5] = subcutaneous, Swiss albino mice, method of Litchfield and Wilcoxon

Row | SMILES | Response % inhibition (phenylquinone-writhing) (phenylquinone-writhing; [1]) [%] | Response % inhibition (phenylquinone-writhing) (phenylquinone-writhing; [2]) [%] | Response % inhibition (phenylquinone-writhing) (phenylquinone-writhing; [3]) [%] | Response % inhibition (phenylquinone-writhing) (phenylquinone-writhing; [4]) [%] | ED50 (phenylquinone-writhing; [5]) [mg/kg] | Analgesic activity (in words) (phenylquinone-writhing) | Response % animals protected, 3 hours after drug (carageenan inflamed paw; 64 mg/kg) [%] | Response % animals protected, 5 hours after drug (carageenan inflamed paw; 64 mg/kg) [%] | Anti-inflammatory activity (in words) (carageenan inflamed paw) | Hyperglycemic activity (in words) (blood-glucose) | other results
1 | CC(=O)Oc1ccccc1C(=O)O [Aspirin (TM), reference compound] |  |  |  |  |  |  |  |  |  |  | ED50 (phenylquinone-writhing): 52 mg/kg
2 | O=C(NN1CC=CCC1)c1ccncc1 [Compound A-13, N-(4-pyridylcarbonylimino)-1,2,5,6-tetrahydropyridine] | 38.6 | 58.0 | 80.8 | 96.0 | 53 | active analgesics | 25 | 75 | striking anti-inflammatory action | demonstrated hyperglycemic activity | Analgesic activity (in words) (phenylquinone-writhing; listed as A13): analgesic; Anti-inflammatory activity (in words) (carageenan inflamed paw; listed as A13): anti-inflammatory; Hyperglycemic activity (in words) (blood-glucose; listed as A13): hyper-
3 | O=C(NN1CC=CCC1)c1cccnc1 [Compound A-14, N-(3-pyridylcarbonylimino)-1,2,5,6-tetrahydropyridine] | 38.9 | 59.2 | 81.2 | 89.6 | 47 | active analgesics | 50 | 0 |  | demonstrated hyperglycemic activity | Analgesic activity (in words) (phenylquinone-writhing; listed as A14): analgesic; Hyperglycemic activity (in words) (blood-glucose; listed as A14): hyper-
4 | O=C(NN1CC=CCC1)c1ccccn1 [Compound A-19, N-(2-pyridylcarbonylimino)-1,2,5,6-tetrahydropyridine] |  |  | 57.3 |  |  | active analgesics | 25 | 75 | striking anti-inflammatory action | demonstrated hyperglycemic activity | Analgesic activity (in words) (phenylquinone-writhing; listed as A19): analgesic; Anti-inflammatory activity (in words) (carageenan inflamed paw; listed as A19): anti-inflammatory; % change in blood-glucose concentrations (blood-glucose; 100 mg/kg): +50%; % change in blood-glucose concentrations (blood-glucose; 200 mg/kg): +50%; Hyperglycemic activity (in words) (blood-glucose; listed as A19): hyper-
5 | O=C(NN1CC=CCC1)c1ccccc1 [Compound A-20, N-(benzoylimino)-1,2,5,6-tetrahydropyridine] | 57.4 | 59.0 | 88.2 | 98.0 | 36 | active analgesics | 25 | 50 |  |  | Response % inhibition (phenylquinone-writhing) (phenylquinone-writhing; 16 mg/kg, subcutaneous, Swiss albino mice): 26.2%; Analgesic activity (in words) (phenylquinone-writhing; listed as A20): analgesic
6 | O=C(NN1CCC=C(CCCO)C1)c1ccccc1 [Compound A-21, N-(benzoylimino)-3-(3^1-hydroxypropyl)-1,2,5,6-tetrahydropyridine] |  |  | 20 |  |  | analgesic (slight) |  |  |  |  | 
7 | O=C(NN1CCC=C(CCCO)C1)c1ccncc1 [Compound A-22, N-(4-pyridylcarbonylimino)-3-(3^1-hydroxypropyl)-1,2,5,6-tetrahydropyridine] |  |  | 43 |  |  | analgesic (slight) |  |  |  |  | 
8 | O=C(NN1CC=C(CCCO)CC1)c1ccncc1 [Compound A-23, N-(4-pyridylcarbonylimino)-4-(3^1-hydroxypropyl)-1,2,5,6-tetrahydropyridine] |  |  | 11 |  |  |  | 25 | 75 | striking anti-inflammatory action |  | Anti-inflammatory activity (in words) (carageenan inflamed paw; listed as A23): anti-inflammatory
9 | COc1ccc2c(c1)c(CC(=O)O)c(C)n2C(=O)c1ccc(Cl)cc1 [Indomethazine (TM), reference compound] |  |  |  |  |  |  |  |  |  |  | Response % animals protected, 3 hours after drug (carageenan inflamed paw; 12 mg/kg): 50%; Response % animals protected, 5 hours after drug (carageenan inflamed paw; 12 mg/kg): 50%
